Results: patent publication US10683525B2, “Method for producing 2-O-glyceryl-alpha-D-glucopyranoside” (Technische Universität Graz, priority 2006, dated 2020)

Test system: mannitol dehydrogenase, MDH
Experiment: Stabilization of proteins during freeze drying
Assay type: biochemical
Conditions: MDH 0.8 mg/ml, 20-1500 mM αGG in 100 mM Tris/HCl buffer pH 7.0, lyophilized over-night and redissolved; irrespective of the added αGG concentration; 2% without any stabilizer
Description: The protein of interest (e.g. mannitol dehydrogenase, MDH) was incubated at a concentration of 0.8 mg/ml in the presence of 0, 20, 50, 100, 500, 1000 or 1500 mM αGG in 100 mM Tris/HCl buffer, pH 7.0. The samples were lyophilized over-night and dissolved in the same buffer again. The specific enzyme activity was determined, using appropriate assays for the corresponding enzyme as described elsewhere (Slatner M. et al., Biochemistry 38: 10489-10498), before and after freeze drying. Without any stabilizer added the enzymatic activity of MDH dropped down to 2% after freeze drying, whereas αGG is able to maintain enzymatic activity up to 48% irrespective of the added αGG concentration.

OCC(CO)O[C@H]1O[C@H](CO)[C@@H](O)[C@H](O)[C@H]1O [αGG, 2-O-glyceryl-α-D-glucopyranoside]
enzymatic activity of MDH maintained after freeze drying: up to 48%
